ChEMBL document CHEMBL1154179, “Analogs of a 4-aminothieno[2,3-d]pyrimidine lead (QB13) as modulators of P-glycoprotein substrate specificity” (Bioorg Med Chem Lett, 2009)

How the values were obtained:
Type in all cases: cell-based
[1] = target: T1, ATP-dependent translocase ABCB1 (Homo sapiens, UniProt P08183); test: Modulation of P-gp overexpressed in human A2780 cells assessed as daunorubicin accumulation preincubated 15 mins prior to daunorubicin addition measured after 180 mins by fluorescence assay
[2] = target: T1, ATP-dependent translocase ABCB1; test: Modulation of P-gp overexpressed in human A2780 cells assessed as vinblastin accumulation at 31.6 uM by MTT assay; conditions: a2780, 31.6 µM
[3] = target: T1, ATP-dependent translocase ABCB1; test: Modulation of P-gp overexpressed in human A2780 cells assessed as colchicine accumulation at 31.6 uM by MTT assay; conditions: a2780, 31.6 µM
[4] = target: T1, ATP-dependent translocase ABCB1; test: Modulation of P-gp overexpressed in human A2780 cells assessed as daunorubicin accumulation at 31.6 uM by MTT assay; conditions: a2780, 31.6 µM

T1 sequence (P08183 whole entry): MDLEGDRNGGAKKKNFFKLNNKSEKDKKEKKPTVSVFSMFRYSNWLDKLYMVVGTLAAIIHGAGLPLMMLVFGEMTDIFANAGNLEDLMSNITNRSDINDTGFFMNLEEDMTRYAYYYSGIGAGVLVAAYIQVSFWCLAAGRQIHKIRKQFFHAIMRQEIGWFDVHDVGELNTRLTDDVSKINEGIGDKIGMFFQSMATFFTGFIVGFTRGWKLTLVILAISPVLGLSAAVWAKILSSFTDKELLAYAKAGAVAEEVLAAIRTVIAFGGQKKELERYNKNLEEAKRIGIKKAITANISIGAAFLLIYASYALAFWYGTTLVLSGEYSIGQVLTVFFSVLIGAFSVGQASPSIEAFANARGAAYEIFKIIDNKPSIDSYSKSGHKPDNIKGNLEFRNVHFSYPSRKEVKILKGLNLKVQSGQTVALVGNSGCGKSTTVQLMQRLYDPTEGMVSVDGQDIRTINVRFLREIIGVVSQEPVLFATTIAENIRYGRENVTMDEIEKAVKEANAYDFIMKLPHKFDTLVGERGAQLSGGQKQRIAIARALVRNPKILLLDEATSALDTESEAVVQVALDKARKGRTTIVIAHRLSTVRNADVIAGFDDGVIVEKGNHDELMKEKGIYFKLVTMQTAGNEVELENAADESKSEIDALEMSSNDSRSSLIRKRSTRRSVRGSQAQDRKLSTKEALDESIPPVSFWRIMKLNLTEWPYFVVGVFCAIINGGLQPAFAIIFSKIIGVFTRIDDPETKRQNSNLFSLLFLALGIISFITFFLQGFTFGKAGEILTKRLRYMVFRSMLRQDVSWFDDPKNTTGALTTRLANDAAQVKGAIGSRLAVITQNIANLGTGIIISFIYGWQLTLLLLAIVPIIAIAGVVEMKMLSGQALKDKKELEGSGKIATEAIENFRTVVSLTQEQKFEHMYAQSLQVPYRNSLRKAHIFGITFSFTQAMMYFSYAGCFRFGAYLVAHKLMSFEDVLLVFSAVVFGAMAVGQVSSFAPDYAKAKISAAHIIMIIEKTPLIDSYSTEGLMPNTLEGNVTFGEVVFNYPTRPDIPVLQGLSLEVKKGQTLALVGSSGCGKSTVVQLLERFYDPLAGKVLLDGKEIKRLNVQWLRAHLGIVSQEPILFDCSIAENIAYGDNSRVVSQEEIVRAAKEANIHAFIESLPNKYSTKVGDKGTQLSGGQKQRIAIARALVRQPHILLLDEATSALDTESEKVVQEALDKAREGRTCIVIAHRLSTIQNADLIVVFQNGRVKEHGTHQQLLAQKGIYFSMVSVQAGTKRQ

Row | Compound | EC50 [1] | Activity [2] | Activity [3] | Activity [4]
1 | Cc1sc2nc(SC(C(=O)O)c3ccccc3)nc(N)c2c1C (centres undefined) | > 100000 nM |  |  | 
2 | Nc1nc(SCCc2ccccc2)nc2ccccc12 | 1100 nM |  |  | 
3 | CCSc1nc(N)c2c3c(sc2n1)CCCC3 | 460 nM |  |  | 
4 | CCOC(=O)CSc1nc(N)c2c3c(sc2n1)CN(Cc1ccccc1)CC3 | 640 nM |  |  | 
5 | CSc1nc(N)c2c(C)c(C)sc2n1 | 1310 nM |  |  | 
6 | Nc1nc(SCCc2ccccc2)nc2sc3c(c12)CCC3 | 970 nM |  |  | 
7 | CCOC(=O)CSc1nc(N)c2c(C)c(C)sc2n1 | 900 nM | Active | Not Active | Active
8 | CCOC(=O)CSc1nc(N)c2c3c(sc2n1)COCC3 | 1550 nM |  |  | 
9 | CCOC(=O)CSc1nc(N)c2ccccc2n1 | 3980 nM |  |  | 
10 | Nc1nc(SC(C(=O)O)c2ccccc2)nc2sc3c(c12)CCCC3 (centres undefined) | > 100000 nM |  |  | 
11 | Cc1sc2nc(SCC(=O)c3ccccc3)nc(N)c2c1C | 1310 nM |  |  | 
12 | CSc1nc(N)c2c3c(sc2n1)CCCC3 | 2650 nM |  |  | 
13 | CCSc1nc(N)c2c(C)c(C)sc2n1 | 4590 nM |  |  | 
14 | Nc1nc(SCCc2ccccc2)nc2sc3c(c12)CCOC3 | 560 nM |  |  | 
15 | CCOC(=O)CSc1nc(N)c2c3c(sc2n1)CCC3 | 4150 nM |  |  | 
16 | Nc1nc(SCCc2ccccc2)nc2sc3c(c12)CCCC3 | 1020 nM | Active | Not Active | Active
17 | Nc1nc(SCCO)nc2sc3c(c12)CCCC3 | 1920 nM |  |  | 
18 | Cc1sc2nc(SCCc3ccccc3)nc(N)c2c1C | 2250 nM | Active | Not Active | Active
19 | COc1cc2nc(SCCc3ccccc3)nc(N)c2cc1OC | 1520 nM |  |  | 
20 | Nc1nc(SCC(=O)c2ccccc2)nc2sc3c(c12)CCCC3 | 640 nM |  |  | 
21 | CCOC(=O)CSc1nc(N)c2c3c(sc2n1)CCCC3 | 2240 nM | Active | Not Active | Active
22 | CCOC(=O)CSc1nc(N)c2cc(OC)c(OC)cc2n1 | 1210 nM |  |  | 
